Test results from patent US9084748B2, “Biopolymer produced by fermenting the extract of soybean with folic acid and a composition containing thereof” (Damy Chemical Co., Ltd., priority 2007, dated 2015).

What was measured:
[1] = tested on: human dermal fibroblast neonatal (HDF-N); assay: Cell growth of fibroblast primary culture, neutral red (NR) assay; format: cell-based; conditions: fibroblasts incubated 24 hours
Description: It was identified through the current experiment that the folyl EFS promotes cell growth and collagen biosynthesis. A cell line used in the current experiment was a primary culture of a fibroblast (human dermal fibroblast neonatal; (HDF-N; Gibco, Cooper, M. L. et al, Biomaterials 12:243, 1991), and a culture media used was a fibroblast neonatal growth medium (FGM, KDR Co.). […] Shao-Zeng Z. et al., Cell Biology and Toxicology, 6:2, 1990) (see FIG. 7).

[2] = tested on: human dermal fibroblast neonatal; assay: Collagen biosynthesis promotion, human collagen type-1 ELISA; format: cell-based
Experimental: The folyl EFS and the human dermal fibroblast neonatal were incubated for 3 days, and the supernatant was isolated and collagen was quantified using a human collagen type-1 ELISA kit (Cosmo Bio Co.). A sample used in the current experiment was a 1% solution containing Composition 2 used in Preparation Example 2, and 4% of 1,3-butyleneglycol was added to the sample and preserved. Also, to compare with the effect of the folyl EFS, a folic acid solution in which the concentration of the folic acid was the same as that in the folyl EFS was prepared. In addition, 10 ng/ml of transforming growth factor-beta (TGF-β; Sigma), which is known as a promotion factor for collagen biosynthesis, was compared with the folyl EFS.
The collagen biosynthesis promotion effect of the folyl EFS is shown in the bar chart of FIG. 8. A folyl EFS produced as a cosmetic source material was a 1% liquid product. In FIG. 8, the concentration (%) of the x-axis denotes a ratio of the volume of the folyl EFS to the volume of the entire culture solution (v/v, %). The results are represented as the ratio of the value of collagen of each group with respect to the average value of collagen in a group not treated with anything when the average value of collagen in the group not treated with anything was set at 100%. […]

[3] = tested on: mice (BALB/C, male); assay: Anti-allergic (anti-anaphylaxis) test, C48/80 intraperitoneally injected; format: in vivo
Experimental: C48/80 is a material that stimulates immune organs and induces acute anaphylaxis within 30 minutes when intraperperitoneally injected. In the current experiment, the number of test animals which died within a predetermined time period (24 hours) after the intraperperitoneal injection of the C48/80 was counted. In the current experiment, 10 mice (BALB/C, male) were used per group, and each group was tested for three times and the average value of the three experimental results was represented as a death ratio (%).

[4] = tested on: mast cells (ATCC TIB-64, P815); assay: Quantifying histamine secreted by C48/80-stimulated mast cells (ELISA); format: cell-based
Experimental: This experiment was performed to identify how much the folyl EFS reduces the amount of histamine secreted when mast cells are treated with a stimulant. […] FIG. 2 is a bar chart showing the results of the experiment. […] As described above, it can be seen that the folyl EFS has an excellent anti-histamine (anti-allergic) effect.

Compound: Nc1nc2ncc(CNc3ccc(C(=O)N[C@@H](CCC(=O)O)C(=O)O)cc3)nc2c(=O)[nH]1 [folic acid]
- cell growth rate when concentration gradually increased [1]: the cell growth rate was not increased accordingly
- collagen biosynthesis promotion effect ([2]; folic acid solution at same folic acid concentration as in folyl EFS): did not occur within an error range

Compound: O=C(O)c1cc(=O)c2c(OCC(O)COc3cccc4oc(C(=O)O)cc(=O)c34)cccc2o1 [sodium cromolyn]
- inhibition of development of anaphylaxis ([3]; 1% sodium cromolyn): up to 80%
- inhibition of sequela of anaphylaxis ([3]; result in words): did not inhibit sequela of anaphylaxis
- ED50 value (histamine secretion inhibition) ([4]; C48/80-stimulated mast cells, ELISA): 0.5%
- histamine secretion inhibition rate ([4]; about 0.5% of the sodium cromolyn): 50%

Compound: TGF-β
- maximum promotion rate of collagen biosynthesis ([2]; at 0.63% (v/v, %), 3 days, relative to untreated group set at 100%): 22%
